Measured values published in article PMC12591170, “Glabridin‐Gold(I) Complex as a Novel Immunomodulatory Agent Targeting TrxR and MAPK Pathways for Synergistic Enhancement of Antitumor Immunity” (Advanced Science, 2025).

Experiments:
purified TrxR = assay: Purified TrxR activity assay (DTNB); format: biochemical; settings: 0.625-20 µM
Description: Different concentrations of complex 6d solution and 1.8 U purified TrxR were added to the wells (25 µL per well separately). Consequently, the reaction solution (20 mg mL^−1 BSA, 500 mM EDTA‐2Na, and 40 mg mL^−1 NADPH, diluted in a 1:1 mixture of PBS and water) was added to the 96 wells (225 µL per well). Finally, 25 mg mL^−1 DTNB solution was added (25 µL per well) and OD values were immediately measured at 405 nm. The linear growth at 405 nm was calculated to show the purified TrxR activity. Final concentrations of complex 6d were 0.625, 1.25, 2.5, 5, 10, 20 µM.

immature DCs = assay: DC maturation assay with medium of treated Hepa1-6 cells; format: cell-based, C57BL/6 mouse; settings: 24 h
Description: The monocytes were extracted from the leg bone marrow of a C57BL/6 mouse and incubated in the 1640 complete medium with rmGM‐CSF (20 ng mL^−1) and IL‐4 (20 ng mL^−1). The medium was replaced partially every other day, and immature DCs were differentiated after 7 days. […] The medium from treated Hepa1‐6 cells was collected and coincubated with the differentiated DCs for 24 h. After cells collection, the coincubated DCs were labeled with CD11c antibody, CD80 antibody and CD86 antibody. Then, the DC maturation ratio was analyzed by a flow cytometer.

Hepa1-6 tumors = assay: In vivo antitumor assay, Hepa1-6 tumors; set-up: species or system C57BL/6 mice
[1] = In vivo tolerability (body weight, survival, organ H&E)
Description: All mice were 6–8 weeks old males and procured from Hangzhou Medical College, located in Hangzhou, China. […] 2 × 10^6 Hepa1‐6 cells in 100 µL DMEM were subcutaneously seeded in underarms of C57BL/6 mice. […] Meanwhile, the mice weights and tumor volume were recorded, and the calculation formula of tumor volume was Volume = Width^2 × Length/2. After 13 days, all mice were sacrificed for collection of tumors, hearts, livers, spleens, lungs and kidneys. Collagenase IV (1 mg mL^−1) and DNase I (1 µg mL^−1) were applied to digest a part of the tumor tissue into cell suspension, and lysis buffer was used to remove red blood cells. The prepared cells above were stained with antibodies (anti‐CD3e‐FITC, and anti‐CD8a‐PE; anti‐CD11c‐APC, anti‐CD80‐PE, and anti‐CD86‐FITC; anti‐CD45‐Percp, anti‐CD11b‐APC, and anti‐Ly‐6G/Ly‐6C(Gr‐1)‐FITC; anti‐CD11b‐APC, anti‐CD206‐PE, and CD86‐FITC). CD3^+CD8^+ T cells, CD80^+CD86^+ DCs, CD11b^+Gr‐1^+ MDSCs, CD206^−CD86^+ M1‐type macrophages and CD206^+CD86^− M2‐type macrophages were analyzed by flow cytometry. Then, another part of tumor tissues were fixed with 4% paraformaldehyde, embedded in paraffin, cut into slices and stained with antibodies for immunofluorescence and immunohistochemistry analysis. H&E stain assays were applied for all tissue samples.

With `CCn1ccn(CCCCCOc2ccc([C@@H]3COc4c(ccc5c4C=CC(C)(C)O5)C3)c(OCCCCCn3ccn(CC)[c]3=[Au][Br])c2)[c]1=[Au][Br]` [6d] the “purified TrxR activity” value (purified TrxR) was “suppressed TrxR activity”, the DC maturation (immature DCs) was “significantly induced DC maturation” and the “tumor volume growth vs model group” value (Hepa1-6 tumors; after 11 days of treatment, 5 mg kg^−1 i.p. every two days) was “significant reduction in tumor volume growth”. For the same compound, the “tumor growth vs model group” value (Hepa1-6 tumors; after 13 days, 6d and OXA 5 mg kg^−1, GLA 10 mg kg^−1, i.p. every two days) was “significant tumor growth inhibition”, the “effect on mice body weight” value ([1]; 6d and OXA 5 mg kg^−1, GLA 10 mg kg^−1, i.p. every two days, OXA after nine days) was “no significant effect” and the “organ tissue damage (H&E staining)” value ([1]; heart, liver, spleen, lung, kidney, day 13) was “did not cause noticeable damage to organ tissues”.
